The record followed here is patent US12486290B2, “Isoindolinone and indazole compounds for the degradation of EGFR” (C4 THERAPEUTICS, INC., priority 2019, dated 2025).

For the assay, the target named is T1, EGFR T790M/L858R (NCI-H1975 cells) (Homo sapiens, UniProt P00533, L858R/T790M).
T1 construct: NCI-H1975 (harboring EGFR heterozygous T790M/L858R mutations); host or cells: NCI-H1975
The experiment in a line: EGFR (L858R) degradation analysis, Total EGFR (L858R) HTRF, NCI-H1975 cells. It counts as cell-based. The settings on record: 6 hours. The text has this: NCI-H1975 (harboring EGFR heterozygous T790M/L858R mutations) and NCI-H3255 (harboring EGFR heterozygous L858R mutation) were purchased from ATCC and NCI, respectively. NCI-H1975+CS (harboring EGFR heterozygous T/790M/L858R/C797S mutations) was generated using CRISPR technology to introduce the additional C797S mutation by Horizon Discovery. RPMI 1640 no-phenol red medium and fetal bovine serum (FBS) were purchased from Gibco (Grand Island, NY, USA). Cell culture flasks and 384-well microplates were acquired from VWR (Radnor, PA, USA). Total EGFR (L858R) HTRF assay kits were purchased from Cisbio (Bedford, MA, USA).
Degradation of EGFR protein containing L858R mutation was determined based on quantification of FRET signal using Total EGFR (L858R) HTRF assay kit. Test compounds were added to the 384-well plate from a top concentration of 10 μM with 11 points, half log titration in duplicates. NCI-H1975, NCI-H1975+CS or NCI-H3255 cells were added into 384-well plates at a cell density of 10000, 10000 or 1000 cells per well, respectively. The plates were kept at 37° C. with 5% CO2 for 6 hours. Cells treated in the absence of the test compound were the negative control. Positive control was set by wells containing all reagents but no cells. FRET signal was acquired on EnVision™ Multilabel Reader (PerkinElmer, Santa Clara, CA, USA).

T1 sequence (P00533 25-1210 T790M/L858R): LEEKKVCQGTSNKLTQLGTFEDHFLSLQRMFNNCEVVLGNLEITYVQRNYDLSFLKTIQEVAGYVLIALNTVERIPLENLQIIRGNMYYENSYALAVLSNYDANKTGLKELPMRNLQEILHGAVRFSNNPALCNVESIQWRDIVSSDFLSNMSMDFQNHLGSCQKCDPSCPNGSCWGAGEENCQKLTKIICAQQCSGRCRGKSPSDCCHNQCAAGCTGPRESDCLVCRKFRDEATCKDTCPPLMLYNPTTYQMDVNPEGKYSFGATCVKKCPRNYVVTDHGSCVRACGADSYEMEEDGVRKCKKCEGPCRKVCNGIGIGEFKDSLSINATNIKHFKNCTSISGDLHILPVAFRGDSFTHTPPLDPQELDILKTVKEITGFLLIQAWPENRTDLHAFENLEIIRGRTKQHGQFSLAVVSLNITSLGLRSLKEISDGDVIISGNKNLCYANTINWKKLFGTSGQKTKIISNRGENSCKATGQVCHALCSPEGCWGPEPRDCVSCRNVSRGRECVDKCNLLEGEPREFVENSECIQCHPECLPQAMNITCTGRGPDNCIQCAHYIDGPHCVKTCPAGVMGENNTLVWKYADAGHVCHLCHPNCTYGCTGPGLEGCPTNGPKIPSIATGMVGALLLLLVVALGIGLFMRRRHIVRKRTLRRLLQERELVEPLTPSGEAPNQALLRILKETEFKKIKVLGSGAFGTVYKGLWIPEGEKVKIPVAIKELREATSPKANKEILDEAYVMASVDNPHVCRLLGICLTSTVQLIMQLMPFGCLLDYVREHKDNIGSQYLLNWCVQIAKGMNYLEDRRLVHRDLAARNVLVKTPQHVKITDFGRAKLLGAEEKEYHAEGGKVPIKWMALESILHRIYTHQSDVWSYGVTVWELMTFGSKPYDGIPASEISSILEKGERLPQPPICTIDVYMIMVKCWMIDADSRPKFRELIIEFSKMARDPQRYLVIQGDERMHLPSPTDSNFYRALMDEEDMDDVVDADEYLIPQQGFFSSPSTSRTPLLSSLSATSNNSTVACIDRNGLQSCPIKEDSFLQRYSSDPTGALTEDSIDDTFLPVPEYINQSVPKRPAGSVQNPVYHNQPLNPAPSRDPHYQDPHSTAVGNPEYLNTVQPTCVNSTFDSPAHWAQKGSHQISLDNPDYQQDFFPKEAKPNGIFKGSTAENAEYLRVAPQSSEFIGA

The DC50 is the concentration giving 50% degradation. On to `O=C1CC[C@H](Nc2ccc(C3CCN(CC(=O)N4CCC(Oc5ccc(-c6cc(F)c7c(c6)C(=O)N(C(C(=O)Nc6nccs6)c6ncn8c6CCC8)C7)cc5)CC4)CC3)c(F)c2)C(=O)N1` (stereo partly drawn) [Compound 39, 2-(6,7-dihydro-5H-pyrrolo[1,2-c]imidazol-1-yl)-2-(6-(4-((1-(2-(4-(4-(((S)-2,6-dioxopiperidin-3-yl)amino)-2-fluorophenyl)piperidin-1-yl)acetyl)piperidin-4-yl)oxy)phenyl)-4-fluoro-1-oxoisoindolin-2-yl)-N-(thiazol-2-yl)acetamide], for which the DC50 worked out at 88 nM. This counts as double-digit nanomolar.

As to `O=C1NC(=O)C2(Nc3ccc(C4CCN(CC(=O)N5CCC(Oc6ccc(-c7cc(F)c8c(c7)C(=O)N(C(C(=O)Nc7nccs7)c7ncn9c7CCC9)C8)cc6)CC5)CC4)cc3)CC1C2` (stereo not shown) [Compound 38, 2-(6,7-dihydro-5H-pyrrolo[1,2-c]imidazol-1-yl)-2-(6-(4-((1-(2-(4-(4-((2,4-dioxo-3-azabicyclo[3.1.1]heptan-1-yl)amino)phenyl)piperidin-1-yl)acetyl)piperidin-4-yl)oxy)phenyl)-4-fluoro-1-oxoisoindolin-2-yl)-N-(thiazol-2-yl)acetamide], it took 52 nM to reach half-maximal degradation (DC50). The value for `O=C1CCC(Nc2ccc(C3CCN(CC(=O)N4CC5(C4)CN(c4ccc(-c6cc(F)c7c(c6)C(=O)N(C(C(=O)Nc6nccs6)c6ncn8c6CCC8)C7)cc4)C5)CC3(F)F)cc2)C(=O)N1` (single isomer, unassigned) [Compound 51, 2-(6,7-dihydro-5H-pyrrolo[1,2-c]imidazol-1-yl)-2-(6-(4-(6-(2-(4-(4-((2,6-dioxopiperidin-3-yl)amino)phenyl)-3,3-difluoropiperidin-1-yl)acetyl)-2,6-diazaspiro[3.3]heptan-2-yl)phenyl)-4-fluoro-1-oxoisoindolin-2-yl)-N-(thiazol-2-yl)acetamide] was 13 nM; that for `O=C1CCC(Nc2ccc(N3CCC(O)(CC(=O)N4CCN(c5ccc(-c6cc(F)c7c(c6)C(=O)N(C(C(=O)Nc6nccs6)c6ncn8c6CCC8)C7)cc5)CC4)CC3)c(C(F)(F)F)c2)C(=O)N1` (stereo not shown) [Compound 18, 2-(6,7-dihydro-5H-pyrrolo[1,2-c]imidazol-1-yl)-2-(6-(4-(4-(2-(1-(4-((2,6-dioxopiperidin-3-yl)amino)-2-(trifluoromethyl)phenyl)-4-hydroxypiperidin-4-yl)acetyl)piperazin-1-yl)phenyl)-4-fluoro-1-oxoisoindolin-2-yl)-N-(thiazol-2-yl)acetamide] was 46 nM.

`O=C1CCC(Nc2ccc(C3CCN(CC(=O)N4CCN(c5ccc(-c6cc(F)c7cn(C(C(=O)Nc8nccs8)c8ncn9c8CCC9)nc7c6)cn5)CC4)CC3)cc2)C(=O)N1` (stereo not shown) [Compound 65, 2-(6,7-dihydro-5H-pyrrolo[1,2-c]imidazol-1-yl)-2-[6-[6-[4-[2-[4-[4-[(2,6-dioxo-3-piperidyl)amino]phenyl]-1-piperidyl]acetyl]piperazin-1-yl]-3-pyridyl]-4-fluoro-indazol-2-yl]-N-thiazol-2-yl-acetamide] had a DC50 of 36 nM. With `O=C1CCC(Nc2ccc(C3CCN(CC(=O)N4CCN(c5ccc(-c6ccc7cn(C(C(=O)Nc8nccs8)c8ncn9c8CCC9)nc7c6F)cn5)CC4)CC3)cc2)C(=O)N1` (racemic) [Compound 63, (2RS)-2-(6,7-Dihydro-5H-pyrrolo[1,2-c]imidazol-1-yl)-2-[7-fluoro-6-[6-[4-[2-[4-[4-[[(3RS)-2,6-dioxo-3-piperidyl]amino]phenyl]-1-piperidyl]acetyl]piperazin-1-yl]-3-pyridyl]indazol-2-yl]-N-thiazol-2-yl-acetamide] the figure was 81 nM; with `O=C1CCC(Nc2ccc(CC(=O)N3CCC(NC(=O)c4ccc(C#Cc5cc(F)c6c(c5)C(=O)N(C(C(=O)Nc5nccs5)c5ncn7c5CCC7)C6)cn4)CC3)cc2)C(=O)N1` (stereo not shown) [Compound 2, 5-[2-[2-[1-(6,7-dihydro-5H-pyrrolo[1,2-c]imidazol-1-yl)-2-oxo-2-(thiazol-2-ylamino)ethyl]-7-fluoro-3-oxo-isoindolin-5-yl]ethynyl]-N-[1-[2-[4-[(2,6-dioxo-3-piperidyl)amino]phenyl]acetyl]-4-piperidyl]pyridine-2-carboxamide], 7 nM.
